Patent US8624079B2, “Knockin mouse with a disruption in a PXR gene expressing human PXR” (ITI Scotland Limited, priority 2007, dated 2014)
Values joined by “and” are separate entries in the source; they are usually repeats but may differ in a detail not shown here. Equal entries are not always repeated.

Key:
Cyp3a11 [1] = assay: Cyp3a11 protein expression in liver microsomes of treated mice by SDS-PAGE and Western blotting; conditions: mouse, in vivo, 40 mg/kg
Procedure: (§1) Dosing solutions were prepared on the day of administration by adding corn oil to the requisite quantity of test substance and stirring to obtain a solution or fine suspension. The concentration of PCN was 10 mg/ml and Rif 2.5 mg/ml of supplied chemical, without any correction for purity. Records of preparation were retained.
The volume of vehicle and solutions of inducing agents administered was 10 ml/kg bodyweight. This route of administration was chosen for consistency with previously published work. […]
(§2) Quantification of Cyp3a11, Cyp2b10 and PXR protein in liver microsomes of all mice samples was carried out by SDS-PAGE and Western blotting. To detect murine and human PXR protein, an antibody (RF8) was employed. For the identification of Cyp3a and Cyp2b, […] were used, (CH32 and CH4, respectively).

Cyp2b10 [2] = assay: Cyp2b10 protein expression of treated mice by SDS-PAGE and Western blotting; conditions: for Cyp2b10 protein in pooled liver microsomes (Western blot): PB 80 mg/kg ip daily for 4 days
Procedure: as §1
Control animals were administered vehicle (corn oil) daily by intraperitoneal injection. The volume of vehicle and solutions of inducing agents administered was 10 ml/kg bodyweight. This route of administration was chosen for consistency with previously published work. […]
as §2

Cyp3a = assay: 7-benzyloxyquinoline (BQ) activity assay in liver microsomes of treated mice; conditions: PB 80 mg/kg ip daily for 4 days
Procedure: PXR activity was determined by measuring the metabolism of a number of cytochrome P450 substrates which are metabolised to different extents by different cytochrome P450 enzymes. The following assays were performed: • 7-benzyloxyquinoline (BQ) activity was determined in liver microsomes. • Testosterone hydroxylase activity was determined in liver microsomes (LMS HPLC-006). • The specific activities of these reactions was expressed per mg protein as determined using the Lowry assay (LMS Spec-0001).

[3] = wild-type, koPXR or koCAR mice; 40 mg/kg
Procedure: For the same animals, plasma levels of alanine aminotransferase (ALT), alkaline phosphatase (ALP) and aspartate aminotransferase (AST) were also measured (see FIG. 40). […] Both compounds were administered at 40 mg/kg.
Plasma levels of alanine aminotransferase (ALT), alkaline phosphatase (ALP) and aspartate aminotransferase (AST) were also measured (see FIG. 46).

[4] = Liver/body weight ratios (hepatomegaly); assay type: in vivo, mouse; conditions: PB 80 mg/kg ip daily for 4 days; for Body weight (g) - Day 5 / Liver weight / Liver/Body weight Ratio: Mean ± SD; for hepatomegaly: WT and huPXR/huCAR mice
Excerpt: Post operation all animals had no abnormalities detected.

liver cells = assay: BrdU incorporation in liver (hepatic cell proliferation, S-phase labelling index); assay type: in vivo, mouse; conditions: for % BrDu Positive Cells, % mean (of own control) / % BrDu Positive Cells, Mean / % BrDu Positive Cells (individual mouse): liver; for cell proliferation (BrdU positive cells): huPXR/huCAR or PXRKO/CARKO mice
liver [5] = assay: H&E histopathology of liver and small intestine; assay type: in vivo, mouse
Excerpt: Two samples of the liver (one from the lobe, one from the median lobe) and one sample of the small intestine were taken and preserved in 4% neutral buffered formaldehyde (NBF). The preserved liver samples of all mice of all groups were trimmed, processed and embedded in paraffin. The paraffin-embedded samples were sent to Progenix, Inverkeithing, UK where they were sectioned at a nominal thickness of about 5 áem and then stained with haematoxylin and eosin (H&E). One section of each organ sample was examined by Dr. Ortwin Vogel, Consultant Pathologist, Kiel, Germany. Subsequent to his histopatholoical analysis of all H&E stained mouse livers and small intestines, Dr. Vogel reported the following finding;

Cyp1a1/1a2 and Cyp1b1 = assay: MROD and EROD activity in liver microsomes of treated mice; conditions: PB 80 mg/kg ip daily for 4 days
Excerpt: EROD activity is indicative of Cyp1a1/1a2 and Cyp1b1 in the mouse, whereas MROD is a substrate for Cyp1a2. However, other isoforms may be contributing to the measured activities. The results from the two enzyme assays are in reasonably good agreement with each other (FIG. 130a-b) As the Cyp1a2 gene is constitutively expressed, this may explain the basal levels of activity observed in both activity assays.

liver [6] = assay: TUNEL labelling assay (hepatic in situ cell death); assay type: in vivo, mouse; conditions: WT, huPXR/huCAR and PXRKO/CARKO mice; PB 80 mg/kg ip daily for 4 days
Excerpt: However, no such consistency has been observed in mice. An indirect TUNEL labelling assay was used to analyse hepatic in situ death (FIG. 128/Table 4). The present study has shown a marker variation in apoptotic indices in mouse liver. Thus, small (e.g. 50%) compound-induced decreases, upon a low background, were not readily demonstrable.

Cyp3a11 and Cyp2b10 = assay: Comparative induction study in PXR/CAR humanised and knockout panel (Cyp3a11, Cyp2b10 protein, BQ and PROD activity); conditions: mice in which CAR had been knocked out; 40 mg/kg
Excerpt: The effects of phenobarbital on Cyp3a11 and Cyp2b10 induction were compared in wild type, huPXR, koPXR, huCAR, koCAR, huPXR/huCAR, koPXR/koCAR huPXR/koCAR and koPXR/huCAR mice (see FIG. 87).

Cyp2b10 [7] = assay: pentoxyresorufin-O-deethylation (PROD) and BROD activity assay in liver microsomes of treated mice; conditions: for BROD and PROD activities (Cyp2b10 / P450 induction): WT and huPXR/huCAR mice
Cyp3a11 [8] = assay: Midazolam metabolism in koCyp3a11 mice; conditions: male koCyp3a11 mice compared to male wild type mice
Excerpt: The also inventors studied the pharmacokinetics of midazolam (MDZ; metabolisation to form 1-hydroxymidazolam) in male koCyp3a11 mice, in comparison to male wild type mice.

[9] = wild type mice; rifampicin 10 mg/kg per day for 3 days before midazolam
[10] = PXRKO/CARKO mice, PB 80 mg/kg ip daily for 4 days
[11] = PXRKO/CARKO mice, PB 80 mg/kg ip daily for 4 days, listed as PB
[12] = WT mice, PB 80 mg/kg ip daily for 4 days
[13] = huPXR/huCAR mice, PB 80 mg/kg ip daily for 4 days
[14] = PB 80 mg/kg ip daily for 4 days
[15] = PB 80 mg/kg ip daily for 4 days, listed as PB

CCC1(c2ccccc2)C(=O)NC(=O)NC1=O [phenobarbital, Phenobarbital]
Cyp3a11 expression in liver (Western blot) (Cyp3a11 [1]): significantly reduced
Cyp2b10 protein in pooled liver microsomes (Western blot) (Cyp2b10 [2]; PXRKO/CARKO mice): not in the PXRKO/CARKO animals
Cyp2b10 protein in pooled liver microsomes (Western blot) (Cyp2b10 [2]; WT and huPXR/huCAR mice): induced
Cyp2b10 expression in liver (Western blot) (Cyp2b10 [2]; koCAR mice, 40 mg/kg): significantly reduced
Cyp2b10 expression (Western blot and PROD activity, liver) (Cyp2b10 [2]; wild-type and huCAR mice, 40 mg/kg): induced Cyp2b10 expression both in the wild-type and in huCAR mice
Cyp3a11 induction (BQ activity) (Cyp3a; PXRKO/CARKO mice): absence of Cyp3a11 induction
increase in BQ activity (Cyp3a; WT mice): marginal increase
increase in BQ activity (Cyp3a; huPXR/huCAR mice): 5 fold
hepatotoxicity (liver/body weight ratio, plasma ALT, ALP, AST) [3]: No hepatotoxicity was detected
Body weight - Day 5 (% mean own control ± % SD) ([4]; PXRKO/CARKO mice): (98 ± 8) %
Liver weight (% mean own control ± % SD) ([4]; PXRKO/CARKO mice): (98 ± 16) %
Liver/Body weight Ratio (% mean own control ± % SD) ([4]; PXRKO/CARKO mice): (100 ± 9) %
Body weight (g) - Day 5 ([4]; PXRKO/CARKO mice): 26.6 ± 2.2 g
Liver weight ([4]; PXRKO/CARKO mice): 1.42 ± 0.23 g
Liver/Body weight Ratio ([4]; PXRKO/CARKO mice): 5.3 ± 0.4
hepatomegaly [4]: led to both hepatomegaly and P450 induction
hepatomegaly ([4]; listed as PB): observed
Body weight - Day 5 (% mean own control ± % SD) ([4]; WT mice): (84 ± 5) %
Liver weight (% mean own control ± % SD) ([4]; WT mice): (101 ± 6) %
Body weight (g) - Day 5 ([4]; WT mice): 23.2 ± 1.3 g
Liver weight ([4]; WT mice): 1.44 ± 0.09 g
Liver/Body weight Ratio ([4]; WT mice): 6.2 ± 0.2
Body weight - Day 5 (% mean own control ± % SD) ([4]; huPXR/huCAR mice): (99 ± 6) %
Liver weight (% mean own control ± % SD) ([4]; huPXR/huCAR mice): (121 ± 11) %
Body weight (g) - Day 5 ([4]; huPXR/huCAR mice): 25.4 ± 1.5 g
Liver weight ([4]; huPXR/huCAR mice): 1.69 ± 0.16 g
Liver/Body weight Ratio ([4]; huPXR/huCAR mice): 6.7 ± 0.6
% BrDu Positive Cells, % mean (of own control) (liver cells; [10]): 144%
% BrDu Positive Cells, Mean (liver cells; [10]): 2.83%
% BrDu Positive Cells (individual mouse) (liver cells; [11]): 2.16% and 1.98% and 1.82% and 2.30% and 3.77% and 5.10% and 3.71% and 1.88% and 3.06% and 2.51%
increase of hepatocellular labelling index (S-phase) (liver cells; [12]): approximately 5 fold
% BrDu Positive Cells, % mean (of own control) (liver cells; [12]): 531%
% BrDu Positive Cells, Mean (liver cells; [12]): 9.30%
% BrDu Positive Cells (individual mouse) (liver cells; WT mice, PB 80 mg/kg ip daily for 4 days, listed as PB): 9.45% and 5.54% and 16.69% and 6.32% and 9.50% and 8.09% and 7.64% and 13.60%
% BrDu Positive Cells, % mean (of own control) (liver cells; [13]): 104%
% BrDu Positive Cells, Mean (liver cells; [13]): 2.00%
% BrDu Positive Cells (individual mouse) (liver cells; huPXR/huCAR mice, PB 80 mg/kg ip daily for 4 days, listed as PB): 0.37% and 0.-18% and 1.19% and 1.86% and 3.GO and 1.98% and 3.18% and 3.24% and 2.13%
cell proliferation (BrdU positive cells) (liver cells; [14]): No increase in BrdU positive cells was observed
cell proliferation (BrdU positive cells) (liver cells; [15]): appeared to have no effect on cell proliferation
hepatocellular proliferation (% BrdU-positive cells) (liver cells; wild-type mice, phenobarbital vs unexposed control): hepatocellular proliferation only in wild-type mice
hepatocellular hypertrophy (H&E, microscopic) (liver [5]; [10]): no unequivocal evidence of a hepatocellular hypertrophy
pathological evidence in liver (pathologist's conclusion) (liver [5]; PXRKO/CARKO strain, PB 80 mg/kg/4days/IP): Evidence of hepatocellular hyperplasia occurred
pathological evidence in liver (pathologist's conclusion) (liver [5]; WT and huPXR/huCAR strain, PB 80 mg/kg/4days/IP): pathological evidence of a hepatocellular hypertrophy/hyperplasia
mitotic figures indicating hepatocellular proliferation (H&E) (liver [5]; WT, huPXR/huCAR and PXRKO/CARKO mice, PB 80 mg/kg ip daily for 4 days): noted mainly in PB-treated WT mice
microscopic findings in the small intestine (liver [5]; all mouse lines, PB 80 mg/kg/4days/IP): No microscopic findings were recorded in the small intestine
hepatocellular hypertrophy (H&E, microscopic) (liver [5]; huPXR/huCAR and WT mice, PB 80 mg/kg ip daily for 4 days): slight to moderate centrilobular hepatocellular hyperthrophy
MROD and EROD enzyme activities (Cyp1a1/1a2 and Cyp1b1; PXRKO/CARKO line): no increase
MROD and EROD enzyme activities (Cyp1a1/1a2 and Cyp1b1; WT and huPXR/huCAR mice): increased
hepatic apoptotic indices (TUNEL), PB-treated vs control (liver [6]): no statistical significance found
induction of Cyp3a11 and Cyp2b10 protein expression or activity in the BQ and PROD assays (Cyp3a11 and Cyp2b10): Little or no induction
PROD or BROD activities (Cyp2b10 / P450 induction) (Cyp2b10 [7]; [11]): not altered
BROD and PROD activities (Cyp2b10 / P450 induction) (Cyp2b10 [7]; [14]): led to both hepatomegaly and P450 induction
BROD and PROD activities (Cyp2b10 / P450 induction) (Cyp2b10 [7]; [15]): marker Cyp2b10 induction was observed, at similar levels

Cc1ncc2n1-c1ccc(Cl)cc1C(c1ccccc1F)=NC2 [midazolam]
1-hydroxymidazolam formation (Cyp3a11 [8]): significantly reduced

CO[C@H]1/C=C/O[C@@]2(C)Oc3c(C)c(O)c4c(O)c(c(/C=N/N5CCN(C)CC5)c(O)c4c3C2=O)NC(=O)/C(C)=C\C=C\[C@H](C)[C@H](O)[C@@H](C)[C@@H](O)[C@@H](C)[C@H](OC(C)=O)[C@@H]1C [rifampicin]
induction of Cyp2b10 expression (Cyp2b10 [2]; mouse, in vivo): did not induce
induction of Cyp2b10 expression and PROD activity (Cyp2b10 [2]; mouse, in vivo): only in the huPXR.1 mouse, but not in the wild type or in the huPXR mouse
induction of Cyp2b10 protein (Western blot) (Cyp2b10 [2]; mouse, in vivo, ip): not markedly induced
effect of rifampicin pre-treatment on midazolam pharmacokinetics [9]: no significant effect was observed
induction of Cyp2b10 activity (Cyp2b10 [7]; wild-type or huPXR mice, rifampicin): did not induce
